For test [1], the system named is RNA polymerase II Serine 5 phosphorylation (Rpb1 CTD), downstream substrate of CDK7. Briefly: Imaging-based cellular RNA PolII Ser5 phosphorylation assay in A549 cells. The format is cell-based, human. The note with it: Homo sapiens, A549, 3 h, challenged with compound for 3 hours, read-out: pRNA polII Ser5 (A549) pIC50 (converted). An outline of the steps:
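A549 cells seeded 20 h in DMEM with 1% FBS, then exposed to compound for 3 h at 37 °C; fixed, methanol-permeabilized and immunostained for phospho-Rpb1 CTD Ser5, read by automated imaging. Signal normalized to DMSO (high) and 10 μM LDC4297 (low) controls; IC50 from four-parameter fit of % control vs concentration.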

Test [2] concerns the target T1, CDK7/Cyclin H/MAT-1 complex (Homo sapiens, UniProt P50613).
T1 construct: Human CDK7 (amino acids 1-346); His6 (N); TEV protease cleavage site (N); made in house; host or cells: baculovirus-SF9 insect cells
Briefly: Flint assay, end-point fluorescence (5 nM CDK7/Cyclin H/MAT-1 complex). The format is biochemical. The note with it: for IC50: read-out: CDK7 (5 nM) pIC50 (converted). An outline of the steps:
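Trimeric complex of His6-TEV-tagged human CDK7 (1-346), MAT1 (1-309) and cyclin H (1-323), co-expressed in Sf9 cells, at 5 nM final, with substrates and coupling reagents as in the absorbance assay; 24 h reaction. End-point NADH fluorescence decrease (ex 340/em 440 nm); % inhibition versus no-inhibitor and full-inhibition controls, IC50 from four-parameter Hill fit.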

T1 sequence (P50613 whole entry, the tested form may be a part): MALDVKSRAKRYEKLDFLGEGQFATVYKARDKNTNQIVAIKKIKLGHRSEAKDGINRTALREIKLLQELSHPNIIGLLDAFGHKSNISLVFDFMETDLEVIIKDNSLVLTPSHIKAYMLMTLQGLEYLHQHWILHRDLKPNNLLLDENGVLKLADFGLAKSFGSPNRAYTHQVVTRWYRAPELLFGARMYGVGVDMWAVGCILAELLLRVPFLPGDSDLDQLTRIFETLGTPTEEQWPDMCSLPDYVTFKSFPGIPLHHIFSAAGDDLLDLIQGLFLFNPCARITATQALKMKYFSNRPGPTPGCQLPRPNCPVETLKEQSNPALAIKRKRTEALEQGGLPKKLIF
T1 sequence (P51946 whole entry partner, the tested form may be a part): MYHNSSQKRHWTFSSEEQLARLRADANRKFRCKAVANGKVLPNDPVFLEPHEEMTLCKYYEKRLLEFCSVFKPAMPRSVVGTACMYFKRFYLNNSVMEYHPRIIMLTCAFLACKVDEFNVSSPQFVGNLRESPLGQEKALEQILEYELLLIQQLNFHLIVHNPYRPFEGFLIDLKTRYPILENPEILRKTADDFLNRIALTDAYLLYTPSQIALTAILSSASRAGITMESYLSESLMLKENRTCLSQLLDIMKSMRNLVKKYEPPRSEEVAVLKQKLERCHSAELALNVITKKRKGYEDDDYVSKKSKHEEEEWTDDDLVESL
T1 sequence (P51948 whole entry partner, the tested form may be a part): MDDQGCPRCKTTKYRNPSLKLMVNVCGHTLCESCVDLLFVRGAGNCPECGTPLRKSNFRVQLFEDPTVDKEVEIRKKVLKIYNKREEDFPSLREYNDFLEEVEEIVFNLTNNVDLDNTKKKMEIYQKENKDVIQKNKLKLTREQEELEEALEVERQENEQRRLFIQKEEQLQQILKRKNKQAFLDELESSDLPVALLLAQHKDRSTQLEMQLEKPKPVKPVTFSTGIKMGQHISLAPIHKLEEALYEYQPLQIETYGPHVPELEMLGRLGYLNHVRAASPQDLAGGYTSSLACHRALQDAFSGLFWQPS

For the compound `C[C@@H]1Cc2cnc(NCc3cc(C(F)F)n(C)n3)nc2CN1C(=O)[C@H]1CCN(C)C[C@@H]1c1ccccc1` [Compound 56], the IC50 in test [1] was 5.13 µM. Also, the “CDK7 (5 nM) pIC50” value in test [2] amounted to 7.44.

Consider `C[C@@H]1Cc2cnc(N[C@@H]3CCOC4(CCC4)C3)nc2CN1C(=O)[C@H]1CCN(C)C[C@@H]1c1ccccc1` (relative stereo) [Compound 8], for which the IC50 in test [1] was 0.0692 µM; in test [2] it was 0.00269 µM.

Regarding `CO[C@H]1CC[C@H](Nc2ncc3c(n2)CN(C(=O)[C@H]2CCN(C)C[C@@H]2c2ccccc2)C2(CC2)C3)CC1` [Compound 192], the IC50 in test [1] is 2.88 µM. Moreover, in test [2], the “CDK7 (5 nM) pIC50” value is on record as 6.84.

In the case of `CO[C@H]1CC[C@H](Nc2cc3c(cn2)C[C@H](C)N(C(=O)[C@H]2CCN(C)C[C@@H]2c2cccc(C)c2)C3)CC1` [Compound 177c], the IC50 in test [1] is ~0.0977 µM; in test [2] it was 0.0224 µM.

In the case of `C[C@H](Nc1ncc2c(n1)CN(C(=O)[C@H]1CCN(C)C[C@@H]1c1ccccc1)[C@H](C)C2)c1ccn(C)n1` (single isomer, unassigned) [Compound 55], the IC50 in test [1] was 4.47 µM; in test [2] it was 0.0389 µM.

For `C[C@@H]1Cc2cnc(NCc3ccccc3)nc2CN1C(=O)[C@H]1CCN(CC2COC2)C[C@@H]1c1ccccc1` (single isomer, unassigned) [Compound 155], the IC50 in test [1] was 0.537 µM. Further, the “CDK7 (5 nM) pIC50” value in test [2] is 8.2.

On to `C[C@@H]1Cc2cnc(NC[C@H]3CCOC3)nc2CN1C(=O)[C@H]1CCN(C)C[C@@H]1c1ccccc1` [Compound 53], for which, in test [1], the IC50 is 0.575 µM. The “CDK7 (5 nM) pIC50” value in test [2] is 7.99.

Turning to `C[C@H]1Cc2cnc(Nc3cnn(C)c3)cc2CN1C(=O)[C@H]1CCN(C)C[C@@H]1c1ccccc1` (relative stereo) [Compound 176], the figures for the IC50 in test [1] and in test [2] were 0.38 µM and 0.00912 µM, respectively.

Consider `Cc1cccc([C@H]2CN(C)CC[C@@H]2C(=O)N2Cc3nc(Nc4cnn(C)c4)ncc3C[C@H]2C)c1` (relative stereo) [Compound 126], for which the IC50 in test [1] is ~0.00389 µM; in test [2], 0.00372 µM.

For `CO[C@H]1CC[C@H](Nc2ncc3c(n2)CN(C(=O)[C@H]2CCN(C)C[C@@H]2c2ccccc2)[C@H]2C[C@@H]32)CC1` [Compound 201], in test [1], the IC50 is ~0.0195 µM. Further, the “CDK7 (5 nM) pIC50” value in test [2] came out at 8.16.

With `C[C@@H]1Cc2cnc(NC3CCN(S(=O)(=O)C4CC4)CC3)nc2CN1C(=O)N1CCN(C)C[C@@H]1c1ccccc1` [Compound 210], in test [1], the IC50 is 0.11 µM. The “CDK7 (5 nM) pIC50” value in test [2] is 8.48.

Turning to `C[C@@H]1Cc2cnc(NC3Cc4ccccc4C3)nc2CN1C(=O)[C@H]1CCN(C)C[C@@H]1c1ccccc1` [Compound 29], the IC50 in test [1] is 0.0126 µM. Moreover, the “CDK7 (5 nM) pIC50” value in test [2] worked out at 8.55.

Regarding `C[C@@H]1Cc2cnc(Nc3cnn(CC(C)(C)O)c3)nc2CN1C(=O)[C@H]1CCN(C)C[C@@H]1c1ccccc1` [Compound 74], in test [1], the IC50 was 0.178 µM. Besides, the “CDK7 (5 nM) pIC50” value in test [2] came to 8.0.

With `C[C@@H]1Cc2cnc(Nc3ccnn3C)nc2CN1C(=O)[C@H]1CCN(C)C[C@@H]1c1ccccc1` [Compound 79], in test [1], the IC50 was 2.29 µM. For the same compound, the “CDK7 (5 nM) pIC50” value in test [2] is 7.78.

For the compound `C[C@H]1Cc2cnc(NCc3ccn(C)n3)cc2CN1C(=O)[C@H]1CCN(C)C[C@@H]1c1ccccc1` (relative stereo) [Compound 174], the IC50 was 0.0355 µM in test [1] and 0.00263 µM in test [2].

For the compound `C[C@@H]1Cc2cnc(Nc3ccnc(C(F)F)c3)nc2CN1C(=O)[C@H]1CCN(C)C[C@@H]1c1ccccc1` [Compound 75], the IC50 in test [1] is 0.0575 µM. Further, the “CDK7 (5 nM) pIC50” value in test [2] was 8.04.

Turning to `C[C@@H]1Cc2cnc(N[C@H](C)c3ccccc3)nc2CN1C(=O)[C@H]1CCN(C)C[C@@H]1c1ccccc1` [Compound 22], the IC50 in test [1] was ~0.0141 µM. In test [2], the “CDK7 (5 nM) pIC50” value worked out at 8.19.

As for `C[C@@H]1Cc2cnc(NCc3ccn(C)n3)nc2CN1C(=O)[C@H]1CCN(C)C[C@@H]1c1ccccc1` [Compound 1], in test [1], the IC50 is ~0.0457 µM. In addition, in test [2], the “CDK7 (5 nM) pIC50” value is 8.61.

For the compound `C[C@@H]1Cc2cnc(NC3CCC(OCC4CC4)CC3)nc2CN1C(=O)[C@H]1CCN(C)C[C@@H]1c1ccccc1` (stereo partly drawn) [Compound 3], in test [1], the IC50 was 0.0603 µM. Moreover, the “CDK7 (5 nM) pIC50” value in test [2] is given as 8.3.

Take `C[C@@H]1Cc2cnc(NC3CCN(S(C)(=O)=O)CC3)nc2CN1C(=O)N1CCN(C)C[C@@H]1c1ccccc1` [Compound 209]: the IC50 in test [1] is 0.209 µM. The “CDK7 (5 nM) pIC50” value in test [2] worked out at 8.48.

On to `C[C@@H]1Cc2cnc(NC3CCOCC3)nc2CN1C(=O)[C@H]1CCN(C)C[C@@H]1c1ccccc1` [Compound 47], for which, in test [1], the IC50 was ~0.0708 µM. In addition, in test [2], the “CDK7 (5 nM) pIC50” value amounted to 8.3.

As for `C[C@@H]1Cc2cnc(N[C@H]3CCOC4(CCC4)C3)nc2CN1C(=O)[C@H]1CCN(C)C[C@@H]1c1ccccc1` (relative stereo) [Compound 9], the IC50 in test [1] is 0.309 µM; in test [2], 0.00617 µM.

Take `C[C@@H]1Cc2cnc(NCc3ccccc3)nc2CN1C(=O)[C@H]1CCN(C)C[C@@H]1c1ccccc1` [Compound 43]: the IC50 in test [1] is 0.107 µM. For the same compound, the “CDK7 (5 nM) pIC50” value in test [2] came out at 8.11.

Consider `Cc1cccc([C@H]2CN(C(C)C)CC[C@@H]2C(=O)N2Cc3nc(NC4CCOCC4)ncc3C[C@H]2C)c1` [Compound 166], for which the IC50 in test [1] is ~0.0513 µM. For the same compound, in test [2], the “CDK7 (5 nM) pIC50” value is 7.85.

For `C[C@@H]1Cc2cnc(N[C@H]3CCC[C@H](O)C3)nc2CN1C(=O)[C@H]1CCN(C)C[C@@H]1c1ccccc1` [Compound 59], the IC50 in test [1] was 0.141 µM. For the same compound, the “CDK7 (5 nM) pIC50” value in test [2] is listed as 8.28.

In the case of `C[C@H]1Cc2cnc(NC3(c4ccccc4)COC3)cc2CN1C(=O)[C@H]1CCN(C)C[C@@H]1c1ccccc1` (single isomer, unassigned) [Compound 175], the IC50 in test [1] was 0.166 µM. In addition, the “CDK7 (5 nM) pIC50” value in test [2] is on record as 8.13.

With `CN1CC[C@H](C(=O)N2Cc3nc(NC4CCOCC4)ncc3[C@@H]3C[C@@H]32)[C@@H](c2ccccc2)C1` [Compound 199], the IC50 in test [1] is ~0.0589 µM. Also, the “CDK7 (5 nM) pIC50” value in test [2] is recorded as 8.27.

As to `C[C@@H]1Cc2cnc(NC3CCC(OC(F)F)CC3)nc2CN1C(=O)[C@H]1CCN(C)C[C@@H]1c1ccccc1` (stereo partly drawn) [Compound 69], the IC50 in test [1] was 0.0589 µM. The “CDK7 (5 nM) pIC50” value in test [2] came to 8.57.

Regarding `C[C@@H]1Cc2cnc(Nc3cnn4c3CCCC4)nc2CN1C(=O)[C@H]1CCN(C)C[C@@H]1c1ccccc1` [Compound 77], the IC50 in test [1] was 0.316 µM. Moreover, the “CDK7 (5 nM) pIC50” value in test [2] stood at 7.88.

In the case of `CC(C)n1cc(Nc2ncc3c(n2)CN(C(=O)[C@H]2CCN(C)C[C@@H]2c2ccccc2)[C@H](C)C3)cn1` [Compound 89], the IC50 in test [1] was 0.0708 µM. In addition, the “CDK7 (5 nM) pIC50” value in test [2] is <6.7.

Regarding `C[C@@H]1Cc2cnc(N[C@H]3CC[C@H](C)CC3)nc2CN1C(=O)[C@H]1CCN(C)C[C@@H]1c1ccccc1` [Compound 13], the IC50 in test [1] is ~0.0339 µM. Moreover, the “CDK7 (5 nM) pIC50” value in test [2] was found to be 8.85.

As to `Cc1cc(Nc2ncc3c(n2)CN(C(=O)[C@H]2CCN(C)C[C@@H]2c2ccccc2)[C@H](C)C3)ccn1` [Compound 78], the IC50 in test [1] was ~0.0575 µM. In addition, in test [2], the “CDK7 (5 nM) pIC50” value turned out to be 8.37.

With `Cc1cccc([C@H]2CN(C)CC[C@@H]2C(=O)N2Cc3nc(NC4CCOCC4)ncc3C[C@H]2C)c1` [Compound 93], in test [1], the IC50 was ~0.0676 µM. Moreover, in test [2], the “CDK7 (5 nM) pIC50” value was determined as 8.52.

These data come from patent US12679839B2, “Cyclin-dependent kinase 7 (CDK7) non-covalent inhibitors” (JANSSEN PHARMACEUTICA NV, priority 2020, dated 2026).
